In the supplement of paper PMC8967900:

Legend:
Experiment in all cases: selective drug sensitivity score (sDSS, relative to normal bone marrow) (sDSS (score)); higher = more potent and effective on the cell line relative to normal bone marrow cells
Details in all cases: 72 h
697 = test system: 697
ALL-PO = test system: ALL-PO
CCRF-HSB2 = test system: CCRF-HSB2
COG-LL-317 = test system: COG-LL-317
COG-LL-319h = test system: COG-LL-319h
COG-LL-355h = test system: COG-LL-355h
HAL-01 = test system: HAL-01
JURKAT = test system: JURKAT
KASUMI-9 = test system: KASUMI-9
KOPN-8 = test system: KOPN-8
LC4-1 = test system: LC4-1
MHH-CALL-4 = test system: MHH-CALL-4
MN-60 = test system: MN-60
MOLT-16 = test system: MOLT-16
P30-OHKUBO = test system: P30-OHKUBO
PEER = test system: PEER
SEM cells = test system: SEM cells
SUP-B15 = test system: SUP-B15
TANOUE = test system: TANOUE
TMD5 = test system: TMD5
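Note: ALL cell lines in 384-well plates, five doses spanning 10,000-fold, each plate scaled between vehicle and 100 µmol/L benzalkonium chloride controls, sDSS an adapted area-under-curve metric.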

| SMILES | selective drug sensitivity score 697 | selective drug sensitivity score (ALL-PO) | selective drug sensitivity score (CCRF-HSB2) | selective drug sensitivity score (COG-LL-317) | selective drug sensitivity score (COG-LL-319h) | selective drug sensitivity score (COG-LL-355h) | selective drug sensitivity score (HAL-01) | selective drug sensitivity score (JURKAT) | selective drug sensitivity score (KASUMI-9) | selective drug sensitivity score (KOPN-8) | selective drug sensitivity score (LC4-1) | selective drug sensitivity score (MHH-CALL-4) | selective drug sensitivity score (MN-60) | selective drug sensitivity score (MOLT-16) | selective drug sensitivity score (P30-OHKUBO) | selective drug sensitivity score (PEER) | selective drug sensitivity score (SEM cells) | selective drug sensitivity score (SUP-B15) | selective drug sensitivity score (TANOUE) | selective drug sensitivity score (TMD5) |
| --- | --- | --- | --- | --- | --- | --- | --- | --- | --- | --- | --- | --- | --- | --- | --- | --- | --- | --- | --- | --- |
| CCOC(=O)CCNc1cc(N2CCc3ccccc3CC2)nc(-c2ccccn2)n1 [GSK-J4] (top concentration 100000 nM) | -8.08 | -7.18 | -7.18 | -2.78 | 3.22 | -4.78 | 7.72 | -5.98 | -7.88 | -8.88 | -9.58 | -8.98 | -6.58 | -5.48 | -8.18 | -5.48 | -8.58 | -8.48 | -11.6 | -9.38 |
| Cc1cc(Nc2cc(CN3CCOCC3)c3nc(C)c(Cc4ccc(Cl)cc4F)n3n2)n[nH]1 [Gandotinib] (top concentration 10000 nM) | 5.28 | 4.98 | 5.98 | 8.68 | 8.68 | 2.18 | 4.68 | 3.98 | 9.88 | 8.28 | 6.98 | 4.78 | -3.22 | 5.68 | 6.28 | 8.68 | 10.5 | 7.78 | -7.72 | -0.82 |
| NC(=O)NO [Hydroxyurea] (top concentration 1000000 nM) | 12.8 | -4.54 | 6.66 | 15.4 | 9.26 | 0.66 | 5.26 | 3.16 | 4.26 | 11.9 | 5.26 | -1.04 | -0.04 | 5.76 | 7.66 | 5.56 | 5.36 | 9.96 | -3.94 | -3.24 |
| Cc1ccc(NC(=O)c2ccc(CN3CCN(C)CC3)cc2)cc1Nc1nccc(-c2cccnc2)n1 [Imatinib] (top concentration 10000 nM) | 1.06 | 1.86 | 7.96 | 1.36 | 0.06 | -0.44 | -0.44 | 0.66 | -0.44 | -0.04 | 0.36 | -0.44 | -0.44 | 0.46 | 0.06 | 12 | 0.06 | 17.4 | -0.44 | 8.96 |
| CC(C)NC[C@@H](C(=O)N1CCN(c2ncnc3c2[C@H](C)C[C@H]3O)CC1)c1ccc(Cl)cc1 [Ipatasertib] (top concentration 10000 nM) | 2.9 | 6.7 | 0.3 | 11 | 2.4 | 5.8 | 1.8 | 7.1 | -0.2 | 4.3 | -0.6 | 4.5 | -1.8 | 10.9 | 1.9 | -1.6 | 3.3 | 0.8 | -1.8 | -1.8 |
| CCC(C)n1ncn(-c2ccc(N3CCN(c4ccc(OCC5COC(Cn6cncn6)(c6ccc(Cl)cc6Cl)O5)cc4)CC3)cc2)c1=O (stereo not given) [Itraconazole] (top concentration 5000 nM) | 0.18 | 1.88 | 2.08 | -2.12 | 10.7 | -4.22 | 2.28 | 1.58 | -4.12 | 13.1 | 2.88 | -0.12 | -2.42 | 2.38 | -2.62 | 0.88 | -2.32 | 1.18 | -2.92 | -2.32 |
| Cc1sc2c(c1C)C(c1ccc(Cl)cc1)=N[C@@H](CC(=O)OC(C)(C)C)c1nnc(C)n1-2 [JQ1] (top concentration 10000 nM) | 9.72 | 4.62 | 0.72 | 6.62 | 12.1 | 3.72 | 6.12 | -0.48 | 11.8 | 11.7 | 5.02 | 8.52 | 6.62 | 8.82 | 8.72 | -1.88 | 11.4 | 3.02 | -7.48 | -3.08 |
| CCNC(=O)c1noc(-c2cc(C(C)C)c(O)cc2O)c1-c1ccc(CN2CCOCC2)cc1 [Luminespib] (top concentration 1000 nM) | -1.5 | 4.6 | 6.7 | 7.4 | 3.1 | 6.5 | -3.7 | -5.5 | -3 | 6.7 | -1.4 | 1.7 | -4.6 | 4.6 | -3.9 | -3.7 | 2.1 | -1 | -10.5 | -6.3 |
| O=C(c1cccc(Cl)c1F)N1CCN(Cc2cccc(Nc3nccs3)n2)CC1 [MK-8745] (top concentration 10000 nM) | 8.9 | 9.9 | 14.1 | 12.9 | 14.3 | 2.7 | 7 | 9.8 | 13.2 | 13.2 | 11.5 | 4.5 | 1.6 | 12.2 | 9.1 | 9.8 | 18.3 | 18.3 | -0.8 | 9.4 |
